Assay results from paper PMC9957770, “Mass spectrometry imaging–based assays for aminotransferase activity reveal a broad substrate spectrum for a previously uncharacterized enzyme” (The Journal of Biological Chemistry, 2023).

Target: T1, AtTAT1 (Arabidopsis thaliana, UniProt Q9FN30)
T1 construct: gene At5g53970; pET28a construct of Wang et al. (2016), His-tagged, expressed in E. coli Rosetta-2 (DE3), HisTrap purified
T1 sequence (Q9FN30 1-414): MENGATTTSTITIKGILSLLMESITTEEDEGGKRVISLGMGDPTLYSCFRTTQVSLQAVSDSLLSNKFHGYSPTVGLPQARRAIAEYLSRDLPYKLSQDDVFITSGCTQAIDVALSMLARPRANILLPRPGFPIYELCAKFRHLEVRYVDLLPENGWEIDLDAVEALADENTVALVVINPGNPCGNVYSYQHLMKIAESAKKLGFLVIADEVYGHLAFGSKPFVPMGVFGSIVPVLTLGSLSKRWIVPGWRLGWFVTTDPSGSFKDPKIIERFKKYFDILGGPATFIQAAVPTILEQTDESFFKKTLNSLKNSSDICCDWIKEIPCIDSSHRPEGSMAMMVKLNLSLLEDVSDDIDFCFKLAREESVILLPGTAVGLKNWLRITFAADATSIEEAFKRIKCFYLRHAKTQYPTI
Test: oxime tagging with NIMS mass spectrometry imaging
Assay type: biochemical
Details: 10 mM amino donor, 6 mM alpha-ketoglutarate, 0.5 mM PLP, 100 mM HEPES, final pH 7.6 to 8.0, 30 °C, 60 min

Compound | oxime tagging with NIMS mass spectrometry imaging
N[C@@H](Cc1ccccc1)C(=O)O [phenylalanine] | AtTAT1 can use Tyr, histidine (His), leucine (Leu), methionine (Met), phenylalanine (Phe), and tryptophan (Trp)
N[C@@H](Cc1ccc(O)cc1)C(=O)O [tyrosine] | AtTAT1 can use Tyr, histidine (His), leucine (Leu), methionine (Met), phenylalanine (Phe), and tryptophan (Trp)
